The test system of test [1] is RS4;11 cells. Nature of the test: Inhibitory effect on proliferation of RS4;11 cells (CCK-8). It is filed as cell-based, human. The note with it: Homo sapiens, RS4-11, 72 h. How it is done:
Experimental Example 2: Inhibitory Effect of Compounds on Proliferation of RS4;11 Cells
RS4;11 cells (from Nanjing Cobioer) in logarithmic growth phase and good cell condition were added to a centrifuge tube and centrifuged at 1500 rpm for 3 min in a low speed centrifuge. The supernatant was discarded, and 5 mL of complete medium (RPMI basic medium+10 wt % fetal bovine serum (FBS)) was added using a pipette for cell resuspension. The cells were counted using a cell counter, diluted with complete medium to a cell density of 2×10^5 cells/mL, and added with an equivalent amount of RPMI basic medium to adjust the serum concentration to 5% and the cell density to 1×10^5 cells/mL for plate seeding. The cells were seeded on a 96-well plate at 100 μL/well using a pipettor, and incubated in an incubator at 37° C., 5% CO2 with saturated humidity. After 24 h of incubation, compounds were loaded using a nanoliter pipettor, 2 duplicate wells were set for each concentration, and cells without compound were used as negative controls. […] Inhibition rate (%)=(mean value of negative control group—mean value of experimental group)/(mean value of negative control group—mean value of blank group)×100%. A dose-response curve was fitted by four-parameter analysis, with the logarithm of compound concentration serving as abscissa and inhibition rate serving as ordinate, so that IC50 was calculated (FIG. 2).

For test [2], the target named is T1, BCL-XL/BAK (Homo sapiens, UniProt Q07817).
T1 construct: purchased Cisbio
T1 sequence (Q07817 whole entry, species assumed): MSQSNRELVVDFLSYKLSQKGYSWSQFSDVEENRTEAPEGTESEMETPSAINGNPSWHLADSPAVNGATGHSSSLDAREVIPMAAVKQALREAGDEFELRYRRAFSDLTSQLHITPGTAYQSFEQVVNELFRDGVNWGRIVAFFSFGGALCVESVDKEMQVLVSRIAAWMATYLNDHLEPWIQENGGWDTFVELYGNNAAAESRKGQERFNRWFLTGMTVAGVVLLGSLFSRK
Nature of the test: Screening on inhibitory activity for BCL-XL/BAK binding (Cisbio HTRF kit). How it is done: 1.2 Screening on Inhibitory Activity for BCL-XL/BAK Binding
300 nM Tag1-BCL-XL protein stock solution and 10 μM Tag2-BAK protein stock solution were diluted to 2 nM and 80 nM respectively with dilution buffer in kit (model: BCL-XL/BAK (BH3) BINDING ASSAY KITS, from Cisbio). 5 μL of Tag1-BCL-XL protein diluent was added to each well, then different compounds dissolved with DMSO were added to the wells with a nanoliter pipettor, allowing the final compound concentrations to be 2000 nM to 0.488 nM (4-fold gradient for 7 concentrations in total). Blank control wells (without enzyme) and negative control wells (with enzyme, plus vehicle DMSO) were set, and 2 replicate wells were set. Finally, 5 μL of Tag2-BAK protein diluent was added to each well, and the mixture was mixed well by centrifugation and incubated at 25° C. for 15 min. 100× anti-Tag1-Eu^3+ and 100× anti-Tag2-XL665 were both diluted to 1× working concentration with the detection buffer in the kit. Anti-Tag1-Eu^3+ and anti-Tag2-XL665 were mixed well in a 1:1 ratio, and the mixture was added to wells at 5 µL/well, and incubated at 25° C. for 2 h or more. The plate was read using a PE Envision multi-functional microplate reader (excitation: […], emission: 665 nm) and IC50 (shown in table 1) was calculated by four-parameter fitting.

Test [3] concerns the target T2, BCL-2/BAK (Homo sapiens, UniProt P10415).
T2 construct: purchased Cisbio
Nature of the test: Screening on inhibitory activity for BCL-2/BAK binding (Cisbio HTRF kit). Here is the method: 1.1 Screening on Inhibitory Activity for BCL-2/BAK Binding
500 nM Tag1-BCL-2 protein stock solution and 20 μM Tag2-BAK protein stock solution were diluted to 5 nM and 120 nM respectively with dilution buffer in kit (model: BCL-2/BAK (BH3) BINDING ASSAY KITS, from Cisbio). 5 μL of Tag1-BCL-2 protein diluent was added to each well, then different compounds dissolved with DMSO were added to the wells with a nanoliter pipettor, allowing the final compound concentrations to be 200 nM to 0.0488 nM (4-fold gradient for 7 concentrations in total). Blank control wells (without enzyme) and negative control wells (with enzyme, plus vehicle DMSO) were set, and 2 replicate wells were set. Finally, 5 μL of Tag2-BAK protein diluent was added to each well, and the mixture was mixed well by centrifugation and incubated at 25° C. for 15 min. 100× anti-Tag1-Eu^3+ and 100× anti-Tag2-XL665 were both diluted to 1× working concentration with the detection buffer in the kit. Anti-Tag1-Eu^3+ and anti-Tag2-XL665 were mixed well in a 1:1 ratio, and the mixture was added to wells at 5 μL/well, and incubated at 25° C. for 2 h or more. The plate was read using a PE Envision multi-functional microplate reader (excitation: […], emission: 665 nm) and IC50 (shown in table 1) was calculated by four-parameter fitting.

pIC50: −log10 of the molar value.

IC50 data for twelve compounds are collected here from patent US20250257064A1, “TRIFLUOROMETHYL-SUBSTITUTED SULFONAMIDE AS BCL-2-SELECTIVE INHIBITOR” (Chia Tai Tianqing Pharmaceutical Group Co., Ltd., priority 2018, published 2025).

T2 sequence (P10415 whole entry, species assumed): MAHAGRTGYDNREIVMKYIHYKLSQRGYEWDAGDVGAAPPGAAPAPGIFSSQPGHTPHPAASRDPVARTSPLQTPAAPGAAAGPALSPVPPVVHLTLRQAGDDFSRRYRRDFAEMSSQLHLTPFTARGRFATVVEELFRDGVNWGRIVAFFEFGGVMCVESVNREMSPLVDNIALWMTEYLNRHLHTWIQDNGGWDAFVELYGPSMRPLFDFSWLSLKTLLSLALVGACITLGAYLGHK

What is called pIC50 is the negative decadic logarithm of the IC50, by convention in mol/L. Lower therefore signals a large IC50. On to `CC1(C)CCC(CN2CCN(c3ccc(C(=O)NS(=O)(=O)c4ccc(NCC5CCCOC5)c([N+](=O)[O-])c4)c(Oc4cnc5[nH]ccc5c4)c3)CC2)=C(c2ccc(C(F)(F)F)cc2Cl)C1` (stereo not drawn) [Compound 13-1, 4-(4-{[2-(2-chloro-4-trifluoromethylphenyl)-4,4-dimethylcyclohex-1-enyl]methyl}-piperazin-1-yl)-N-({3-nitro-4-[(tetrahydro-2H-pyran-3-ylmethyl)amino]phenyl}sulfonyl)-2-(1H-pyrrolo[2,3-b]pyridin-5-yloxy)-benzamide], for which the pIC50 in test [1] is 8.09; in test [2], 6.41; in test [3], 8.44.
The like results for `CC1(C)CCC(CN2CCN(c3ccc(C(=O)NS(=O)(=O)c4ccc(NCC5CCCCO5)c([N+](=O)[O-])c4)c(Oc4cnc5[nH]ccc5c4)c3)CC2)=C(c2ccc(C(F)(F)F)cc2Cl)C1` (stereo not drawn) [Compound 14-1, 4-(4-{[2-(2-chloro-4-trifluoromethylphenyl)-4,4-dimethylcyclohex-1-enyl]methyl}-piperazin-1-yl)-N-({3-nitro-4-[(4-tetrahydro-2H-pyran-2-ylmethyl)amino]phenyl}sulfonyl)-2-(1H-pyrrolo[2,3-b]pyridin-5-yloxy)-benzamide] were, in that order, 8.07, 6.47 and 8.29.
On to `CC1(C)CCC(CN2CCN(c3ccc(C(=O)NS(=O)(=O)c4ccc(NCC5CCCN(S(C)(=O)=O)C5)c([N+](=O)[O-])c4)c(Oc4cnc5[nH]ccc5c4)c3)CC2)=C(c2ccc(C(F)(F)F)cc2Cl)C1` (stereo not drawn) [Compound 15-1], for which the results for the pIC50 in test [1], in test [2] and in test [3] were 8.14, 6.14 and 8.42, respectively.
On to `CC(=O)N1CCOC(CCNc2ccc(S(=O)(=O)NC(=O)c3ccc(N4CCN(CC5=C(c6ccc(C(F)(F)F)cc6Cl)CC(C)(C)CC5)CC4)cc3Oc3cnc4[nH]ccc4c3)cc2[N+](=O)[O-])C1` (stereo not drawn) [Compound 16-1, 4-(4-{[2-(2-chloro-4-trifluoromethylphenyl)-4,4-dimethylcyclohex-1-enyl]methyl}-piperazin-1-yl)-N-({3-nitro-4-[(2-(4-acetylmorpholin-2-yl)ethyl)amino]phenyl}sulfonyl)-2-(1H-pyrrolo[2,3-b]pyridin-5-yloxy)-benzamide], for which the pIC50 is 8.11 in test [1], 6.19 in test [2] and 8.51 in test [3].
On the same counts, the results for `CC(C)C(=O)N1CCC(CNc2ccc(S(=O)(=O)NC(=O)c3ccc(N4CCN(CC5=C(c6ccc(C(F)(F)F)cc6Cl)CC(C)(C)CC5)CC4)cc3Oc3cnc4[nH]ccc4c3)cc2[N+](=O)[O-])CC1` [Compound 23-1] are 8.00, 6.52 and 8.29.
On the same counts, the results for `CC1(C)CCC(CN2CCN(c3ccc(C(=O)NS(=O)(=O)c4ccc(NC[C@H]5CCOC5)c([N+](=O)[O-])c4)c(Oc4cnc5[nH]ccc5c4)c3)CC2)=C(c2ccc(C(F)(F)F)cc2Cl)C1` [Compound 35-1, (R)-4-(4-{[2-(2-chloro-4-trifluoromethylphenyl)-4,4-dimethylcyclohex-1-enyl]methyl}-piperazin-1-yl)-N-({3-nitro-4-[((tetrahydrofuran-3-yl)methyl)amino]phenyl}sulfonyl)-2-(1H-pyrrolo[2,3-b]pyridin-5-yloxy)-benzamide] are 8.02, 6.63 and 8.79.
For the compound `CC1(C)CCC(CN2CCN(c3ccc(C(=O)NS(=O)(=O)c4ccc(NC[C@H]5CCCO5)c([N+](=O)[O-])c4)c(Oc4cnc5[nH]ccc5c4)c3)CC2)=C(c2ccc(C(F)(F)F)cc2Cl)C1` [Compound 38-1, (R)-4-(4-{[2-(2-chloro-4-trifluoromethylphenyl)-4,4-dimethylcyclohex-1-enyl]methyl}-piperazin-1-yl)-N-({3-nitro-4-[((tetrahydrofuran-2-yl)methyl)amino]phenyl}sulfonyl)-2-(1H-pyrrolo[2,3-b]pyridin-5-yloxy)-benzamide], the figures for the negative logarithm of the IC50 (pIC50) in test [1], in test [2] and in test [3] were 8.18, 6.73 and 8.55, respectively.
The like results for `CC1(C)CCC(CN2CCN(c3ccc(C(=O)NS(=O)(=O)c4ccc(NC[C@H]5CCCOC5)c([N+](=O)[O-])c4)c(Oc4cnc5[nH]ccc5c4)c3)CC2)=C(c2ccc(C(F)(F)F)cc2Cl)C1` [Compound 42-1, (R)-4-(4-{[2-(2-chloro-4-trifluoromethylphenyl)-4,4-dimethylcyclohex-1-enyl]methyl}-piperazin-1-yl)-N-({3-nitro-4-[((tetrahydropyran-3-yl)methyl)amino]phenyl}sulfonyl)-2-(1H-pyrrolo[2,3-b]pyridin-5-yloxy)-benzamide] were, in that order, 8.17, 6.66 and 8.55.
On the same counts, the results for `CC1(C)CCC(CN2CCN(c3ccc(C(=O)NS(=O)(=O)c4ccc(NCC5CN(C=O)CCO5)c([N+](=O)[O-])c4)c(Oc4cnc5[nH]ccc5c4)c3)CC2)=C(c2ccc(C(F)(F)F)cc2Cl)C1` (stereo not drawn) [Compound 48-1, 4-(4-{[2-(2-chloro-4-trifluoromethylphenyl)-4,4-dimethylcyclohex-1-enyl]methyl}-piperazin-1-yl)-N-({3-nitro-4-[((N-formylmorpholin-2-yl)methyl)amino]phenyl}sulfonyl)-2-(1H-pyrrolo[2,3-b]pyridin-5-yloxy)-benzamide] are 8.85, 6.93 and 8.85.
On the same counts, the results for `CC1(C)CCC(CN2CCN(c3ccc(C(=O)NS(=O)(=O)c4ccc(NCC5CN(C(=O)C(C)(C)C)CCO5)c([N+](=O)[O-])c4)c(Oc4cnc5[nH]ccc5c4)c3)CC2)=C(c2ccc(C(F)(F)F)cc2Cl)C1` (stereo not drawn) [Compound 50-1, 4-(4-{[2-(2-chloro-4-trifluoromethylphenyl)-4,4-dimethylcyclohex-1-enyl]methyl}-piperazin-1-yl)-N-({3-nitro-4-[((4-pivaloylmorpholin-2-yl)methyl)amino]phenyl}sulfonyl)-2-(1H-pyrrolo[2,3-b]pyridin-5-yloxy)-benzamide] are 8.37, 6.68 and 8.59.
For `CC1(C)CCC(CN2CCN(c3ccc(C(=O)NS(=O)(=O)c4ccc(NCC5CN(C(=O)C(F)(F)F)CCO5)c([N+](=O)[O-])c4)c(Oc4cnc5[nH]ccc5c4)c3)CC2)=C(c2ccc(C(F)(F)F)cc2Cl)C1` (stereo not drawn) [Compound 52-1, 4-(4-{[2-(2-chloro-4-trifluoromethylphenyl)-4,4-dimethylcyclohex-1-enyl]methyl}-piperazin-1-yl)-N-({3-nitro-4-[((4-(2,2,2-trifluoroacetyl)morpholin-2-yl)methyl)amino]phenyl}sulfonyl)-2-(1H-pyrrolo[2,3-b]pyridin-5-yloxy)-benzamide], the results for the pIC50 in test [1], in test [2] and in test [3] were 9.05, 6.76 and 8.41, respectively.
The like results for `COCC(=O)N1CCCC(CNc2ccc(S(=O)(=O)NC(=O)c3ccc(N4CCN(CC5=C(c6ccc(C(F)(F)F)cc6Cl)CC(C)(C)CC5)CC4)cc3Oc3cnc4[nH]ccc4c3)cc2[N+](=O)[O-])C1` (stereo not drawn) [Compound 58-1, 4-(4-{[2-(2-chloro-4-trifluoromethylphenyl)-4,4-dimethylcyclohex-1-enyl]methyl}-piperazin-1-yl)-N-({3-nitro-4-[((1-(2-methoxyacetyl)piperidin-3-yl)methyl)amino]phenyl}sulfonyl)-2-(1H-pyrrolo[2,3-b]pyridin-5-yloxy)-benzamide] were, in that order, 8.28, 6.84 and 8.63.
